Biological target: HDM2 protein (Homo sapiens, UniProt Q00987)
Experiment: fluorescence polarization screening assay (FP IC50)
Format: binding
Conditions: class symbols
Description: The compounds were evaluated to determine activity at the HDM2 protein by known methods such as the fluorescence polarization screening assay that measures the inhibitory concentration that achieves 50% of maximal activity (FP IC50) and the dissociation constant for inhibitor binding (FP Ki). [Zhang et al., J. Analytical Biochemistry 331: 138-146 (2004)].

Chain of HDM2 protein (Q00987 whole entry): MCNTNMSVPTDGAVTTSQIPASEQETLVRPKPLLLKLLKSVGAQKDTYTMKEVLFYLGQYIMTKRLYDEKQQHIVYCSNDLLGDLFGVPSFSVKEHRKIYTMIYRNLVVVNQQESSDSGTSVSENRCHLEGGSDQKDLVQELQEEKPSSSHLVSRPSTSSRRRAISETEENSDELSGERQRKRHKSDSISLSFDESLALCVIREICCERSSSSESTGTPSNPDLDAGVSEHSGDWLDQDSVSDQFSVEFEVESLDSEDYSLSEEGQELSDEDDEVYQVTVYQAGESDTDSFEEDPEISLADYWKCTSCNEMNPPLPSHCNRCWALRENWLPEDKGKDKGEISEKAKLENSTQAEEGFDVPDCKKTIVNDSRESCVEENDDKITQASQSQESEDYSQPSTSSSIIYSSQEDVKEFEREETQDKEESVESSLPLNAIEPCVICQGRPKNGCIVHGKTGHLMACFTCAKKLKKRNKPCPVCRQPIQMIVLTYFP

Structure (SMILES) | IC50 [nM]
CCC[C@H]1N(C(=O)c2ncccc2C(F)(F)F)CCC[C@@]1(Oc1csc(C(F)(F)F)c1)C(=O)N1CCc2ccsc2C1CC(C)(C)C(=O)OCC (stereo partly drawn) [Compound A28, ethyl 2,2-dimethyl-3-(6-{[(2R,3S)-2-propyl-1-{[3-(trifluoromethyl)pyridin-2-yl]carbonyl}-3-{[5-(trifluoromethyl)thiophen-3-yl]oxy}piperidin-3-yl]carbonyl}-4,5,6,7-tetrahydrothieno[2,3-c]pyridin-7-yl)propanoate] | 101 to 20000
CCC[C@H]1N(C(=O)c2ncccc2C(F)(F)F)CCC[C@@]1(Oc1csc(C(F)(F)F)c1)C(=O)N1CCc2ccsc2C1CC(C)(C)C(=O)O (stereo partly drawn) [Compound A29, 2,2-dimethyl-3-(6-{[(2R,3S)-2-propyl-1-{[3-(trifluoromethyl)pyridin-2-yl]carbonyl}-3-{[5-(trifluoromethyl)thiophen-3-yl]oxy}piperidin-3-yl]carbonyl}-4,5,6,7-tetrahydrothieno[2,3-c]pyridin-7-yl)propanoic acid] | 1 to 100
CCC[C@H]1N(C(=O)c2ncccc2C(F)(F)F)CCC[C@@]1(Oc1csc(C(F)(F)F)c1)C(=O)N1CCc2ccsc2C1CC(C)(C)C(=O)NCc1nnn[nH]1 (stereo partly drawn) [Compound A30, 2,2-dimethyl-3-(6-{[(2R,3S)-2-propyl-1-{[3-(trifluoromethyl)pyridin-2-yl]carbonyl}-3-{[5-(trifluoromethyl)thiophen-3-yl]oxy}piperidin-3-yl]carbonyl}-4,5,6,7-tetrahydrothieno[2,3-c]pyridin-7-yl)-N-(1H-tetrazol-5-ylmethyl)propanamide] | 1 to 100
CCC[C@H]1N(C(=O)c2ncccc2C(F)(F)F)CCC[C@@]1(Oc1csc(C(F)(F)F)c1)C(=O)N1Cc2ccc(Cl)cc2C[C@@H]1COCC(=O)O [Compound A38, {[(3R)-6-chloro-2-{[(2R,3S)-2-propyl-1-{[3-(trifluoromethyl)pyridin-2-yl]carbonyl}-3-{[5-(trifluoromethyl)thiophen-3-yl]oxy}piperidin-3-yl]carbonyl}-1,2,3,4-tetrahydroisoquinolin-3-yl]methoxy}acetic acid] | 1 to 100
CCC[C@H]1N(C(=O)c2ncccc2C(F)(F)F)CCC[C@@]1(Oc1csc(C(F)(F)F)c1)C(=O)N1CCc2cc(F)ccc2C1CCC(=O)O (stereo partly drawn) [Compound A39, 3-(6-fluoro-2-{[(2R,3S)-2-propyl-1-{[3-(trifluoromethyl)pyridin-2-yl]carbonyl}-3-{[5-(trifluoromethyl)thiophen-3-yl]oxy}piperidin-3-yl]carbonyl}-1,2,3,4-tetrahydroisoquinolin-1-yl)propanoic acid] | 1 to 100
CCC[C@H]1N(C(=O)c2ncccc2C(F)(F)F)CCC[C@@]1(Oc1csc(C(F)(F)F)c1)C(=O)N1CCc2cc(F)ccc2C1CCCCC(=O)O (stereo partly drawn) [Compound A40, 5-(6-fluoro-2-{[(2R,3S)-2-propyl-1-{[3-(trifluoromethyl)pyridin-2-yl]carbonyl}-3-{[5-(trifluoromethyl)thiophen-3-yl]oxy}piperidin-3-yl]carbonyl}-1,2,3,4-tetrahydroisoquinolin-1-yl)pentanoic acid] | 1 to 100
CCC[C@H]1N(C(=O)c2ncccc2C(F)(F)F)CCC[C@@]1(Oc1csc(C(F)(F)F)c1)C(=O)N1CCc2cc(F)ccc2C1CCCCC(=O)O (stereo partly drawn) [Compound A41, 5-(6-fluoro-2-{[(2R,3S)-2-propyl-1-{[3-(trifluoromethyl)pyridin-2-yl]carbonyl}-3-{[5-(trifluoromethyl)thiophen-3-yl]oxy}piperidin-3-yl]carbonyl}-1,2,3,4-tetrahydroisoquinolin-1-yl)pentanoic acid] | 1 to 100
CCC[C@H]1N(C(=O)c2ncccc2C(F)(F)F)CCC[C@@]1(Oc1csc(C(F)(F)F)c1)C(=O)N1CCc2cc(F)ccc2C1CCC(=O)O (stereo partly drawn) [Compound A42, 3-(6-fluoro-2-{[(2R,3S)-2-propyl-1-{[3-(trifluoromethyl)pyridin-2-yl]carbonyl}-3-{[5-(trifluoromethyl)thiophen-3-yl]oxy}piperidin-3-yl]carbonyl}-1,2,3,4-tetrahydroisoquinolin-1-yl)propanoic acid] | 1 to 100
CCC[C@H]1N(C(=O)c2ncccc2C(F)(F)F)CCC[C@@]1(Oc1csc(C(F)(F)F)c1)C(=O)N1CCc2cc(F)ccc2C1CCCCC(=O)O (stereo partly drawn) [Compound A43, 5-(6-fluoro-2-{[(2R,3S)-2-propyl-1-{[3-(trifluoromethyl)pyridin-2-yl]carbonyl}-3-{[5-(trifluoromethyl)thiophen-3-yl]oxy}piperidin-3-yl]carbonyl}-1,2,3,4-tetrahydroisoquinolin-1-yl)pentanoic acid] | 1 to 100
CCC[C@H]1N(C(=O)c2ncccc2C(F)(F)F)CCC[C@@]1(Oc1csc(C(F)(F)F)c1)C(=O)N1CCc2cc(F)ccc2C1CCC(=O)O (stereo partly drawn) [Compound A44, 3-(6-fluoro-2-{[(2R,3S)-2-propyl-1-{[3-(trifluoromethyl)pyridin-2-yl]carbonyl}-3-{[5-(trifluoromethyl)thiophen-3-yl]oxy}piperidin-3-yl]carbonyl}-1,2,3,4-tetrahydroisoquinolin-1-yl)propanoic acid] | 1 to 100
CCC[C@H]1N(C(=O)c2ncccc2C(F)(F)F)CCC[C@@]1(Oc1csc(C(F)(F)F)c1)C(=O)N1CCc2cc(C#N)ccc2C1 [Compound A46] | 101 to 20000

Next, values leading:

IC50 [nM] | Structure (SMILES)
101 to 20000 | CCC[C@H]1N(C(=O)c2ncccc2C(F)(F)F)CCC[C@@]1(Oc1csc(C(F)(F)F)c1)C(=O)N1CCc2sc(Cl)cc2C1CCC(=O)NC (stereo partly drawn) [Compound A27, 3-(2-chloro-5-{[(2R,3S)-2-propyl-1-{[3-(trifluoromethyl)pyridin-2-yl]carbonyl}-3-{[5-(trifluoromethyl)thiophen-3-yl]oxy}piperidin-3-yl]carbonyl}-4,5,6,7-tetrahydrothieno[3,2-c]pyridin-4-yl)-N-methylpropanamide]
1 to 100 | CCC[C@H]1N(C(=O)c2ncccc2C(F)(F)F)CCC[C@@]1(Oc1csc(C(F)(F)F)c1)C(=O)N1CCc2cc(Cl)sc2C1CC(C)(C)C(=O)O (stereo partly drawn) [Compound A31, 3-(2-chloro-6-{[(2R,3S)-2-propyl-1-{[3-(trifluoromethyl)pyridin-2-yl]carbonyl}-3-{[5-(trifluoromethyl)thiophen-3-yl]oxy}piperidin-3-yl]carbonyl}-4,5,6,7-tetrahydrothieno[2,3-c]pyridin-7-yl)-2,2-dimethylpropanoic acid]
101 to 20000 | CCC[C@H]1N(C(=O)c2ncccc2C(F)(F)F)CCC[C@@]1(Oc1csc(C(F)(F)F)c1)C(=O)N1CCc2sc(Cl)cc2C1CCCN1CCOCC1 (stereo partly drawn) [Compound A32, 2-chloro-4-(3-morpholin-4-ylpropyl)-5-{[(2R,3S)-2-propyl-1-{[3-(trifluoromethyl)pyridin-2-yl]carbonyl}-3-{[5-(trifluoromethyl)thiophen-3-yl]oxy}piperidin-3-yl]carbonyl}-4,5,6,7-tetrahydrothieno[3,2-c]pyridine]
101 to 20000 | CCC[C@H]1N(C(=O)c2ncccc2C(F)(F)F)CCC[C@@]1(Oc1csc(C(F)(F)F)c1)C(=O)N1CCc2sc(Cl)cc2C1CCCN1CCCC1 (stereo partly drawn) [Compound A33, 2-chloro-5-{[(2R,3S)-2-propyl-1-{[3-(trifluoromethyl)pyridin-2-yl]carbonyl}-3-{[5-(trifluoromethyl)thiophen-3-yl]oxy}piperidin-3-yl]carbonyl}-4-(3-pyrrolidin-1-ylpropyl)-4,5,6,7-tetrahydrothieno[3,2-c]pyridine]
101 to 20000 | CCC[C@H]1N(C(=O)c2ncccc2C(F)(F)F)CCC[C@@]1(Oc1csc(C(F)(F)F)c1)C(=O)N1CCc2sc(Cl)cc2C1C(=O)NC (stereo partly drawn) [Compound A34, 2-chloro-N-methyl-5-{[(2R,3S)-2-propyl-1-{[3-(trifluoromethyl)pyridin-2-yl]carbonyl}-3-{[5-(trifluoromethyl)thiophen-3-yl]oxy}piperidin-3-yl]carbonyl}-4,5,6,7-tetrahydrothieno[3,2-c]pyridine-4-carboxamide]
101 to 20000 | CCC[C@H]1N(C(=O)c2ncccc2C(F)(F)F)CCC[C@@]1(Oc1csc(C(F)(F)F)c1)C(=O)N1CCc2sc(Cl)cc2C1CN1CCCC1 (stereo partly drawn) [Compound A35, 2-chloro-5-{[(2R,3S)-2-propyl-1-{[3-(trifluoromethyl)pyridin-2-yl]carbonyl}-3-{[5-(trifluoromethyl)thiophen-3-yl]oxy}piperidin-3-yl]carbonyl}-4-(pyrrolidin-1-ylmethyl)-4,5,6,7-tetrahydrothieno[3,2-c]pyridine]
1 to 100 | CCC[C@H]1N(C(=O)c2ncccc2C(F)(F)F)CCC[C@@]1(Oc1csc(C(F)(F)F)c1)C(=O)N1CCc2sc(Cl)cc2C1CCC(=O)NS(C)(=O)=O (stereo partly drawn) [Compound A36, 3-(2-chloro-5-{[(2R,3S)-2-propyl-1-{[3-(trifluoromethyl)pyridin-2-yl]carbonyl}-3-{[5-(trifluoromethyl)thiophen-3-yl]oxy}piperidin-3-yl]carbonyl}-4,5,6,7-tetrahydrothieno[3,2-c]pyridin-4-yl)-N-(methylsulfonyl) propanamide]
1 to 100 | CCC[C@H]1N(C(=O)c2ncccc2C(F)(F)F)CCC[C@@]1(Oc1csc(C(F)(F)F)c1)C(=O)N1CCc2sc(Cl)cc2C1CCC(=O)NS(C)(=O)=O (stereo partly drawn) [Compound A37, 3-(2-chloro-5-{[(2R,3S)-2-propyl-1-{[3-(trifluoromethyl)pyridin-2-yl]carbonyl}-3-{[5-(trifluoromethyl)thiophen-3-yl]oxy}piperidin-3-yl]carbonyl}-4,5,6,7-tetrahydrothieno[3,2-c]pyridin-4-yl)-N-(methylsulfonyl) propanamide]
1 to 100 | CCC[C@H]1N(C(=O)c2ncccc2C(F)(F)F)CCC[C@@]1(Oc1csc(C(F)(F)F)c1)C(=O)N1CCc2cc(Cl)ccc2[C@H]1CCC(=O)O [Compound A45, 3-[(1R)-6-chloro-2-{[(2R,3S)-2-propyl-1-{[3-(trifluoromethyl)pyridin-2-yl]carbonyl}-3-{[5-(trifluoromethyl)thiophen-3-yl]oxy}piperidin-3-yl]carbonyl}-1,2,3,4-tetrahydroisoquinolin-1-yl]propanoic acid]

From patent publication US9062071B2, “Substituted piperidines as HDM2 inhibitors” (Merck Sharp & Dohme Corp, priority 2011, dated 2015)
